The assay deals with breast cancer cell line ZR-75-1. Kind of assay: Inhibition of proliferation of breast cancer cell line ZR-75-1 (CellTiter-Glo). The class given is cell-based. The conditions noted are these: Homo sapiens, 240 h, proliferation of ZR-75-1 cells, 10 days of incubation, read-out: IC50 (KAT6A). The source says:
Test Example 1: Experiment for Determining Inhibitory Effects of Compounds on Proliferation of Breast Cancer Cell Line ZR-75-1
ATP is an indicator of the metabolism of living cells. The CellTiter-Glo® Luminescent Cell Viability Assay is a homogeneous assay method for determining the number of viable cells by quantifying ATP.
• 1) ZR-75-1 (Cell Bank of Chinese Academy of Sciences, TCHul26) • 2) RPMI-1640 medium (Gibco, 11875-093) • 3) Fetal Bovine Serum, New Zealand (Gibco,10091-148) • 4) Penicillin-streptomycin (10,000 U/mL) (Gibco, 15140-122) • 5) Trypsin-EDTA (0.25%), containing phenol red (Gibco, 25200-072) • 6) DPBS (Shanghai BasalMedia, B210KJ) • 7) Corning® 96-well Clear Flat Bottom Ultra-Low Attachment Microplate (Corning, Cat. No. 3474) • 8) 330 μL 96 Holes Deep Well Plate, transparents, 96 Round Holes, V-shaped Bottom, Low Retention (Stellar Scientific, DP33VR-9-NS) • 9) Corning® 96-well solid white flat-bottom polystyrene microplate (Corning, Cat. No. 3917) • 10) CellTiter-Glo® Luminescent Cell Viability Assay (Promega, G7573) • 11) Countstar® BioMed automatic cell counter • 12) Trypan blue solution, 0.4% (Gibco, Cat. No. 15250061) • 13) 37° C. constant-temperature incubator (Thermo, FORMA STERI-CYCLE i160 LK) • 14) Biosafety cabinet (Thermo, 1379)
• 1) The formula of the complete medium for ZR-75-1 was as follows: 500 mL RPMI-1640+10% FBS+1% penicillin-streptomycin. • 2) Thirty minutes before cell plating, the complete medium, serum, trypsin, and DPBS for use in ZR-75-1 cell culture were pre-warmed in a water bath at 37° C. • 3) The ZR-75-1 cells were taken out of the incubator, and the medium was removed by pipetting. The cells were rinsed once with 5 mL of DPBS, and then the DPBS was discarded. • 4) The cells in the T75 culture flask were digested with 1-3 mL of (0.25%) trypsin-EDTA. After the trypsin was added, the culture flask was incubated in an incubator at 37° C. for 2-5 min, and dispersion was confirmed by microscopic examination. Tapping or agitating the culture flask was avoided to prevent disturbing the cells, which might cause cell clumping. • 5) 9 mL of the complete medium was added to terminate the digestion, thus forming a cell suspension, which was then mixed well by pipetting. • 6) Cell suspension counting: 20 μL of the cell suspension was pipetted and diluted with 20 µL of the 0.4% trypan blue solution (Gibco, Cat. No. 15250061). The total cell count and the percentage of cell viability were determined using the Countstar® BioMed automatic cell counter. Only cells with a cell viability of no less than 95% were used for the experiment. • 7) The concentration of the cell suspension was adjusted to 2000 cells/well, and the cell suspension was added to a 96-well cell culture plate at 80 μL/well. Treatment of Cells with Compounds • 1) Twenty-four hours after cell plating, the cell plate was taken out. • 2) Each compound was prepared with a complete medium. The stock solution was a 10 mM solution in DMSO, which was first diluted with the medium to 100 μM, then diluted to 1 μM, and finally subjected to a 5-fold serial dilution across a total of 9 concentration gradients. • 3) 20 μL of the compound diluted with the medium was added to each well of the cell culture plate, which already contained 80 μL of the medium. The final concentration started at 200 nM, followed by a 5-fold serial dilution across a total of 9 concentration gradients. Two replicate wells were set for each compound, and each plate could be used to test 3 compounds, with the DMSO content controlled within 0.5%. • 4) The culture medium was replenished once every three days with a complete medium containing the same concentration of the test compound, with 20 μL/well added each time.
After 10 days of incubation with the compound, the cell culture plate was taken out, and the CellTiter-Glo® reagent was added at 50 μL/well. […]
Background: In ATP-based viability assays light output follows the ATP content of the culture.

As usually defined, the IC50 is the concentration that inhibits the measured activity by half. With `COc1ccc2c(c1S(=O)(=O)Nc1noc3cc(Cn4cccn4)c(F)c(OC)c13)OCCC21CCCC1` [Compound 73, N-(6-((1H-Pyrazol-1-yl)methyl)-5-fluoro-4-methoxybenzo[d]isoxazol-3-yl)-7-methoxyspiro[chromane-4,1′-cyclopentane]-8-sulfonamide], the IC50 lay within 0.5 to 2 nM.

Regarding `COc1ccccc1S(=O)(=O)Nc1nsc2cc(Cn3cccn3)cc(OC)c12` [Compound 9, N-(6-((1H-Pyrazol-1-yl)methyl)-4-methoxybenzo[d]isothiazol-3-yl)-2-methoxybenzenesulfonamide], the IC50 is not below 50 nM.

With `COc1ccc2c(c1S(=O)(=O)Nc1noc3cc(Cn4cccn4)c(F)c(OC)c13)OCCC21CC1` [Compound 43, N-(6-((1H-Pyrazol-1-yl)methyl)-5-fluoro-4-methoxybenzo[d]isoxazol-3-yl)-7-methoxyspiro[chromane-4,1′-cyclopropane]-8-sulfonamide], the IC50 is less than 0.5 nM.

Turning to `COc1cc(Cn2cccn2)cc2onc(NS(=O)(=O)c3cc(C(C)C)ccc3OC3CCC3)c12` [Compound 23, N-(6-((1H-Pyrazol-1-yl)methyl)-4-methoxybenzo[d]isoxazol-3-yl)-2-cyclobutoxy-5-isopropylbenzenesulfonamide], the IC50 is 2 to 10 nM.

For `COc1cc(Cn2cccn2)cc2onc(NS(=O)(=O)c3c(F)ccc4c3OCCC4(F)F)c12` [Compound 103, N-(6-((1H-Pyrazol-1-yl)methyl)-4-methoxybenzo[d]isoxazol-3-yl)-4,4,7-trifluorochromane-8-sulfonamide], the IC50 fell in the range of 10 to 50 nM.

As to `COc1ccc2c(c1S(=O)(=O)Nc1noc3cc(Cn4cccn4)cc(OC)c13)OCCC2=O` [Compound 37, N-(6-((1H-Pyrazol-1-yl)methyl)-4-methoxybenzo[d]isoxazol-3-yl)-7-methoxy-4-oxochromane-8-sulfonamide], the IC50 was less than 0.5 nM.

As to `COc1cc(Cn2cccn2)cc2onc(NS(=O)(=O)c3cc(C(C)(C)C)ccc3OC3CCC3)c12` [Compound 3, N-(6-((1H-Pyrazol-1-yl)methyl)-4-methoxybenzo[d]isoxazol-3-yl)-5-(tert-butyl)-2-cyclobutoxybenzenesulfonamide], the IC50 is 2 to 10 nM.

As for `COc1ccc2c(c1S(=O)(=O)Nc1noc3cc(Cn4cccn4)c(F)c(Cl)c13)OCCO2` [Compound 32, N-(6-((1H-Pyrazol-1-yl)methyl)-4-chloro-5-fluorobenzo[d]isoxazol-3-yl)-6-methoxy-2,3-dihydrobenzo[b][1,4]dioxine-5-sulfonamide], the IC50 fell in the range of 2 to 10 nM.

As for `COc1ccc2c(c1S(=O)(=O)Nc1noc3cc(Cn4cccn4)c(F)c(Cl)c13)OCCC21CC1` [Compound 49, N-(6-((1H-Pyrazol-1-yl)methyl)-4-chloro-5-fluorobenzo[d]isoxazol-3-yl)-7-methoxyspiro[chromane-4,1′-cyclopropane]-8-sulfonamide], the IC50 lay within 2 to 10 nM.

For the compound `COc1ccc2c(c1S(=O)(=O)Nc1noc3cc(Cn4cccn4)c(F)c(OC)c13)OCCN2Cc1ccccc1` [Compound 112, N-(6-((1H-Pyrazol-1-yl)methyl)-5-fluoro-4-methoxybenzo[d]isoxazol-3-yl)-4-benzyl-7-methoxy-3,4-dihydro-2H-benzo[b][1,4]oxazine-8-sulfonamide], the IC50 lay in the range of 2 to 10 nM.

Regarding `COc1cccc(OC)c1S(=O)(=O)Nc1nnc2cc(Cn3cccn3)cc(OC)n12` [Compound 58, N-(7-((1H-Pyrazol-1-yl)methyl)-5-methoxy-[1,2,4]triazolo[4,3-a]pyridin-3-yl)-2,6-dimethoxybenzenesulfonamide], the concentration for half-maximal inhibition (IC50) is not below 50 nM.

As for `COc1ccc2c(c1S(=O)(=O)Nc1noc3cc(Cn4cccn4)cc(OC)c13)OC(C)(C)C2` [Compound 19, N-(6-((1H-Pyrazol-1-yl)methyl)-4-methoxybenzo[d]isoxazol-3-yl)-6-methoxy-2,2-dimethyl-2,3-dihydrobenzofuran-7-sulfonamide], the IC50 lay within 2 to 10 nM.

Values taken from patent publication US20260174778A1, “SULFONAMIDE COMPOUND, AND PREPARATION METHOD THEREFOR AND USE THEREOF” (SHANGHAI HENLIUS BIOTECH, INC., priority 2023, published 2026).
